Assay results reported in patent publication US20230165872A1, “COMBINATION OF BCMA-DIRECTED T CELL THERAPY AND AN IMMUNOMODULATORY COMPOUND” (Juno Therapeutics, Inc., priority 2020, published 2023).

Legend:
[1] = system: RPMI-8226 target cells; assay: Rechallenge with RPMI-8226 after concurrent compound treatment during chronic stimulation (cytolysis, cytokines); type: cell-based, human
Description: (§1) Cryofrozen anti-BCMA CAR T cells, produced substantially as described in Example 1 and formulated at a 1:1 ratio of CD4+ and CD8^+ T cells, were thawed. To subject cells to chronic stimulation conditions, the anti-BCMA CAR+ T cells were stimulated with 50 μg BCMA conjugated beads (diameter about 4.5 μm from a 50 μg/ml BCMA-conjugated bead composition, generated as described in Example 2) at a ratio of T cells to beads of 1:1 in the presence or absence of Compound A (iberdomide, (S)-3-[4-(4-morpholin-4-ylmethyl-benzyloxy)-1-oxo-1,3-dihydro-isoindol-2-yl]-piperidine-2,6-dione) (1 nM or 10 nM), Compound B ((S)-4-(4-(4-(((2-(2,6-dioxopiperidin-3-yl)-1-oxoisoindolin-4-yl)oxy)methyl)benzyl)piperazin-1-yl)-3-fluorobenzonitrile) (0.1 nM or 1 nM), or DMSO vehicle control. The cells were then incubated at 37° C., 5% CO2 for 7 days.
CAR T cells that had been stimulated for 7 days with cultured with 50 μg BCMA-coated magnetic beads concurrently in the presence of the cell immunomodulatory compound were washed free of compound and cells were debeaded. The anti-BCMA CAR T cells that had been stimulated for 7 days with BCMA-conjugated beads in the presence of the compounds were co-cultured with RPMI-8226 target cells (labeled with NucLightRed as described in Example 2) at a 1:1 (effector:target) ratio. Killing activity was monitored over 200 hours by measuring NucLightRed (NLR)-positive target cells. The total cell number of NLR-expressing RPMI targets cells was determined by normalizing cell number over time to the number of cells at the initiation of the co-culture (t=0) for each respective condition.
For cytokine measurements, cell-free supernatants were collected from the cytolytic assay described above 24 hours after plating. Cytokine levels of IFNg, IL-2, and TNFalpha (TNFα) was measured in the supernatant.
(§2) Cryofrozen anti-BCMA CAR T cells, produced substantially as described in Example 1 and formulated at a 1:1 ratio of CD4+ and CD8+ T cells, were thawed. […] The cells were then incubated at 37° C., 5% CO2 for 7 days.
Cytolytic activity was assessed using OPM-2 and RPMI-8226 BCMA expressing target cells transduced with NucLight Red, a red fluorescent protein detectable by microscopy, to allow for measurement of target cell death. Anti-BCMA CAR T cells that had been stimulated for 7 days with BCMA-conjugated beads in the presence of the compounds were co-cultured with RPMI-8226 target cells at a 0.3:1 (effector:target) or 1:1 ratio. Cultures were incubated at 37° C., 5% CO2, and images were taken every 2 hours over 5-7 days with an Essen IncuCyte Zoom live-cell analysis system to track NucLightRed-positive target cells.
For cytokine measurements, cell-free supernatants were collected from the cytolytic assay described above 24 hours after plating. Cytokine levels were measured using IFNg, IL-2, and TNFalpha Meso Scale Discovery cytokine kit (Mesoscale) according to manufacturer instructions. The data was analyzed using GraphPad Prism to calculate absolute changes in cytokine relative to the DMSO vehicle control.

[2] = system: anti-BCMA CAR T cells; assay: Viability and count of anti-BCMA CAR T cells after 7-day chronic stimulation with BCMA-conjugated beads; type: cell-based, human
Description: as §1
At day 7, anti-BCMA CAR cells of all the samples were counted using a cellometer machine and stained for flow cytometric analysis. Cells were stained with a viability dye and analyzed by flow cytometry. Viability and count of anti-BCMA CAR T cells was increased in the presence of Compound A or Compound B.
as §2
At day 7, anti-BCMA CAR cells of all the samples were counted using a cellometer machine and stained for flow cytometric analysis. Cells were stained with a viability dye and analyzed by flow cytometry.

[3] = system: Aiolos; assay: Intracellular Aiolos expression in BCMA-bead stimulated anti-BCMA CAR T cells (flow cytometry, MFI); type: cell-based, human; details: CD4+CAR+ or CD8+CAR+ cells; 24 or 72 hours; lenalidomide 1000 nM, Compound A 1, 10, 100 nM, Compound B 0.1, 1, 10 nM
Description: (§3) A BCMA-Fc fusion protein containing the extracellular domain of human BCMA and a human IgG1Fc was conjugated to beads by covalently coupling to the surface of commercially available tosyl-activated magnetic beads having a diameter of approximately […] (M-450 beads, ThermoFisher, Waltham Mass.) (see e.g. International published PCT App. No. WO2019/027850). Following incubation, anti-BCMA CAR-expressing T cells were stained with antibodies and analyzed by flow cytometry to assess intracellular levels of Ikaros and Aiolos in CD4+CAR+ or CD8+CAR+ cells, as measured by median fluorescence intensity (MFI). Median fluorescence intensity (MFI) values for Ikaros and Aiolos were normalized and calculated as a percentage relative to vehicle control.

[4] = system: RPMI-8226 target cells; assay: Rescue: rechallenge of chronically stimulated anti-BCMA CAR T cells with RPMI-8226 in the presence of compound; type: cell-based, human; details: Example 4: Compound A 1 or 10 nM, Compound B 0.1 or 1 nM during re-challenge
Description: Anti-BCMA CAR-expressing T cells, produced as described in Example 1, were stimulated with 50 μg BCMA conjugated beads (diameter about 4.5 μm from a 50 μg/ml BCMA-conjugated bead composition) substantially as described in Example 3 to induce chronic stimulation (to produce hypofunctional, exhausted T cells). After the chronic stimulation, the CAR-T cells were rechallenged with RPMI-8226 target cells (labeled with NucLightRed as described in Example 2) at a 1:1 (effector:target) ratio in the presence of (rescued) with Compound A (iberdomide, (S)-3-[4-(4-morpholin-4-ylmethyl-benzyloxy)-1-oxo-1,3-dihydro-isoindol-2-yl]-piperidine-2,6-dione) (1 nM or 10 nM), Compound B ((S)-4-(4-(4-(((2-(2,6-dioxopiperidin-3-yl)-1-oxoisoindolin-4-yl)oxy)methyl)benzyl)piperazin-1-yl)-3-fluorobenzonitrile) (0.1 nM or 1 nM), or DMSO vehicle control.
Killing activity and cytokine production were assessed as described in Example 3.
Studies were undertaken to determine whether Compound A (iberdomide, (S)-3-[4-(4-morpholin-4-ylmethyl-benzyloxy)-1-oxo-1,3-dihydro-isoindol-2-yl]-piperidine-2,6-dione) rescued anti-BCMA CAR T cell function following chronic stimulation. To directly stimulate via CAR engagement to induce chronic stimulation of cells, anti-BCMA CAR T cells were stimulated with BCMA conjugated beads (diameter about 4.5 μm from a 50 μg/ml BCMA-conjugated bead composition, generated as described in Example 9) at a ratio of T cells to beads of 1:1. The cells were then incubated at 37° C., 5% CO2 for 7 days.
Cultures were incubated at 37° C., 5% CO2, and images were taken every 2 hours over 5-7 days with an Essen IncuCyte Zoom live-cell analysis system to track NucLightRed-positive target cells.

[5] = system: PBMCs; details: cultures of PBMCs; cited from earlier work
[6] = system: RPMI-8226 target cells; assay: Acute co-culture cytokine secretion of anti-BCMA CAR T cells with RPMI-8226; type: cell-based, human
Description: Anti-tumor effects of anti-BCMA CAR T cells, alone and in combination with cell immunomodulatory compounds Compound A (iberdomide, (S)-3-[4-(4-morpholin-4-ylmethyl-benzyloxy)-1-oxo-1,3-dihydro-isoindol-2-yl]-piperidine-2,6-dione) or Compound B ((S)-4-(4-(4-(((2-(2,6-dioxopiperidin-3-yl)-1-oxoisoindolin-4-yl)oxy)methyl)benzyl)piperazin-1-yl)-3-fluorobenzonitrile), were assessed in two different BCMA-expressing target multiple myeloma cell lines RPMI-8226 or OPM-2. Anti-BCMA CAR+ T cells were generated as described in Example 1.
The anti-BCMA CAR-expressing T cells were incubated with target cells, RPMI 8226 (BCMA^med human multiple myeloma cell line) or OPM2 cells (BCMA^med human multiple myeloma cell line) target cells, at an E:T ratio of 1:1. The co-culture incubation with target cells was carried out in the presence of Compound A (0.01 nM, 0.1 nM, 1 nM, 10 nM, 100 nM, 1000 nM, or 10,000 nM) or Compound B (0.01 nM, 0.1 nM, 1 nM, 10 nM, 100 nM, 1000 nM, or 10,000 nM).

[7] = system: Ikaros; assay: Intracellular Ikaros expression in BCMA-bead stimulated anti-BCMA CAR T cells (flow cytometry, MFI); type: cell-based, human
Description: as §3

[8] = Example 7: day 7, lenalidomide 1000 nM, Compound A 0.1, 1 or 10 nM, FIG. 8
[9] = Example 3: day 7, Compound A 1 or 10 nM, Compound B 0.1 or 1 nM

| Structure (SMILES) | cytolytic activity after long-term stimulation in the presence of compound ([1]; Example 7: E:T 0.3:1, lenalidomide 1000 nM, Compound A 1 or 10 nM, FIG. 9A) | production of IFN-gamma ([1]; Example 7: supernatant at 24 hours, relative to DMSO, FIG. 9B) | production of IL-2 ([1]; Example 7: supernatant at 24 hours, relative to DMSO, FIG. 9C) | production of TNF-alpha ([1]; Example 7: supernatant at 24 hours, relative to DMSO, FIG. 9D) | count of anti-BCMA CAR T cells [2, 8] | viability of anti-BCMA CAR T cells [2, 8] | intracellular Aiolos expression (MFI, percentage relative to vehicle control) [3] | count of anti-BCMA CAR T cells [2, 9] | viability of anti-BCMA CAR T cells [2, 9] | rescue of chronically activated CAR T cells [4] | activation of T cells [5] | loss of Aiolos and Ikaros [5] | production of IL-2 and IFN-γ [5] | concentration needed for effect on cytokine production, compared with Compound A ([6]; acute co-culture) | CAR T cell cytokine production ([6]; similar studies, target cell line not stated) | intracellular Ikaros expression (MFI, percentage relative to vehicle control) ([7]; CD4+CAR+ or CD8+CAR+ cells, 24 or 72 hours, lenalidomide 1000 nM, Compound A 1, 10, 100 nM, Compound B 0.1, 1, 10 nM) | potency in decreasing Ikaros and Aiolos expression, compared with lenalidomide ([7]; stimulated anti-BCMA CAR T cells) |
| --- | --- | --- | --- | --- | --- | --- | --- | --- | --- | --- | --- | --- | --- | --- | --- | --- | --- |
| Nc1cccc2c1CN(C1CCC(=O)NC1=O)C2=O (centres unmarked) [lenalidomide, reference compound] | increased cytolytic activity | increased production | increased production | increased production | increased | increased |  |  |  |  |  |  |  |  |  |  |  |
| N#Cc1ccc(N2CCN(Cc3ccc(COc4cccc5c4CN([C@H]4CCC(=O)NC4=O)C5=O)cc3)CC2)c(F)c1 [Compound B, (S)-4-(4-(4-(((2-(2,6-dioxopiperidin-3-yl)-1-oxoisoindolin-4-yl)oxy)methyl)benzyl)piperazin-1-yl)-3-fluorobenzonitrile] |  |  |  |  |  |  | concentration dependent decrease | increased | increased | able to rescue chronically activated CAR T cells to improve functionality | activation of T cells | induces loss of Aiolos and Ikaros | increased production of IL-2 and IFN-γ | enhanced effects at lower concentrations compared to Compound A | increased | concentration dependent decrease | more potent than lenalidomide |
